Measurements taken from PMC10999085, “Synthesis, anticancer evaluation, molecular docking and ADME study of novel pyrido[4ʹ,3ʹ:3,4]pyrazolo[1,5-a]pyrimidines as potential tropomyosin receptor kinase A (TrKA) inhibitors” (BMC Chemistry, 2024).
Converted amounts (≈) assume the structure as drawn.

How the values were obtained:
Format in all cases: cell-based, human
[1] = test system: HCT-116 cell line; test: MTT assay, HCT-116 cell line; details: for Cytotoxicity at 5 µg/l: HCT116, 5 µg/l; for Cytotoxicity at 5 µg/l / Cytotoxicity at 10 µg/l / Cytotoxicity at 20 µg/l: MTT, 24 hr treatment, in % (unit assumed); for Cytotoxicity at 10 µg/l: HCT116, 10 µg/l; for Cytotoxicity at 20 µg/l: HCT116, 20 µg/l; for IC50: Homo sapiens, HCT-116, HCT116, MTT, read-out: IC50 (drug concentration that inhibited 50% of cell proliferation)
Method in brief: (§1)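 Cells in RPMI-1640 with 10% FBS were seeded at 1.0x10^4 cells/well and cultured 48 h, then exposed to compound for 24 hr. Viability was measured by MTT reduction (4 hr), with formazan dissolved in DMSO and read at 570 nm, relative to untreated cells. Values are means of three independent triplicate experiments.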

[2] = test system: MCF7 cell line; test: MTT assay, MCF7 cell line; details: 24 hr treatment, in % (unit assumed); for Cytotoxicity at 5 µg/l: MCF7, 5 µg/l; for Cytotoxicity at 10 µg/l: MCF7, 10 µg/l; for Cytotoxicity at 20 µg/l: MCF7, 20 µg/l
Method in brief: as §1

[3] = test system: HepG2 cell line; test: MTT assay, HepG2 cell line; details: for Cytotoxicity at 5 µg/l: HepG2, 5 µg/l; for Cytotoxicity at 5 µg/l / Cytotoxicity at 10 µg/l / Cytotoxicity at 20 µg/l: MTT, 24 hr treatment, in % (unit assumed); for Cytotoxicity at 10 µg/l: HepG2, 10 µg/l; for Cytotoxicity at 20 µg/l: HepG2, 20 µg/l; for IC50: Homo sapiens, HepG2, MTT, read-out: IC50 (drug concentration that inhibited 50% of cell proliferation)
Method in brief: as §1

`COc1ccc(C=C2C(=O)NC(=O)c3c2nn2c(C)cc(C)nc32)cc1` [Compound 7b] was tested, and the “Cytotoxicity at 5 µg/l” value [1] was 67.87, the “Cytotoxicity at 10 µg/l” value [1] was 70.12 and the “Cytotoxicity at 20 µg/l” value [1] was 91.94. The IC50 [1] was 2.49 ng/mL (≈ 0.00714 µM), the “Cytotoxicity at 5 µg/l” value [2] was 60.48 and the “Cytotoxicity at 10 µg/l” value [2] was 79.12. The “Cytotoxicity at 20 µg/l” value [2] was 95.03, the “Cytotoxicity at 5 µg/l” value [3] was 55.11 and the “Cytotoxicity at 10 µg/l” value [3] was 69.08. For the same compound, the “Cytotoxicity at 20 µg/l” value [3] was 85.16 and the IC50 [3] was 4.25 ng/mL (≈ 0.0122 µM).

In the case of `Cc1cc(O)n2nc3c(c2n1)C(=O)NC(=O)C3=NNc1ccccc1` [Compound 16a, 4-Hydroxy-2-methyl-7-(2-phenylhydrazono)pyrido[4ʹ,3ʹ:3,4]pyrazolo[1,5-a]pyrimid-ine-8,10(7H,9H)-dione], the “Cytotoxicity at 5 µg/l” value [1] is reported as 54.16, the “Cytotoxicity at 10 µg/l” value [1] is reported as 74.90 and the “Cytotoxicity at 20 µg/l” value [1] is reported as 87.26. For the same compound, the IC50 [1] was 4.37 ng/mL (≈ 0.013 µM), the “Cytotoxicity at 5 µg/l” value [2] was 55.09 and the “Cytotoxicity at 10 µg/l” value [2] was 57.34. The “Cytotoxicity at 20 µg/l” value [2] was 77.25, the “Cytotoxicity at 5 µg/l” value [3] was 54.39 and the “Cytotoxicity at 10 µg/l” value [3] was 66.36. The “Cytotoxicity at 20 µg/l” value [3] was 72.80 and the IC50 [3] was 3.56 ng/mL (≈ 0.0106 µM).

`COc1ccc(NN=C2C(=O)NC(=O)c3c2nn2c(O)cc(C)nc32)cc1` [Compound 16c, 4-Hydroxy-7-(2-(4-methoxyphenyl)hydrazono)-2-methylpyrido[4ʹ,3ʹ:3,4]pyrazolo[1,5-a]pyrimidine-8,10(7H,9H)-dione] was tested, and the “Cytotoxicity at 5 µg/l” value [1] was 55.98, the “Cytotoxicity at 10 µg/l” value [1] was 78.34 and the “Cytotoxicity at 20 µg/l” value [1] was 99.23. The IC50 [1] was 4.5 ng/mL (≈ 0.0123 µM), the “Cytotoxicity at 5 µg/l” value [2] was 56.81 and the “Cytotoxicity at 10 µg/l” value [2] was 62.79. For the same compound, the “Cytotoxicity at 20 µg/l” value [2] was 79.61, the “Cytotoxicity at 5 µg/l” value [3] was 59.17 and the “Cytotoxicity at 10 µg/l” value [3] was 70.57. For the same compound, the “Cytotoxicity at 20 µg/l” value [3] was 84.32 and the IC50 [3] was 3.43 ng/mL (≈ 0.00935 µM).
